Key:
[1] = system: sodium ion current in A549 cells (deglycosylated cell surface); test: Patch clamp assay, whole cell mode, on A549 cells deglycosylated with PNGase F; type: cell-based, human; details: 240 nM peptide, Eh -100 mV, A549
Method: In whole cell mode experiments as described above, A549 cells were incubated with “PNGase enzyme F” (Peptide-N^4-(N-acetyl-β-D-glucosaminyl)asparagine amidase F) 100 units for 1-5 minutes immediately prior to the patch clamp measurements and glass cover slips with the cultured cells were rinsed with external solution before being transferred to the chamber of the 1 mL bath.
The results of the deglycosylation experiments using the patch clamp assay in whole cell mode are presented in Table IV, wherein the effect of deglycosylation of A549 cells on activation of sodium ion current by peptides of SEQ ID NO:1 to SEQ ID NO:7 is indicated. Whole cell currents were recorded at Eh=−100 mV.

[2] = Stability of aqueous solution of the cyclised compound; type: physicochemical
Description: For administration by inhalation/spraying, e.g. in the form of an aerosol, either the aqueous solution from the first dissolution step, or the lyophilisates obtained, re-dissolved in water, is subjected to spraying (atomizing) to obtain an aerosol, e.g. by use of a nebulizer. […] The appropriate lower limit of the droplet size is dependent only from the feasibility of the droplets.

[3] = Particle size of aerosol droplets after nebulizing the aqueous solution; type: physicochemical
Method: With the aid of nebulizers the aqueous solution of a cyclised compound of formula I, namely that of the amino acid sequence SEQ ID NO: 1 was transferred into an aerosol. The particle size of the droplets was measured after subjecting the aqueous solution to 3 different nebulizers and is set out in Table II below: […]

[4] = system: transplanted pig lung; test: Re-implantation of pre-treated non-ischemic donor lungs in recipient pigs; type: in vivo; details: nebulisation 1 mg/kg, 24 h evaluation
Method: After the pre-treatment of the non-ischemic donor lungs with peptide SEQ ID NO:1 from Example 4 the lungs were re-implanted in recipient pigs. Shortly after reperfusion of the transplanted lungs peptide SEQ ID NO: 1 was administered.
A left thoracotomy through the sixth inter costal space was done, the left hilus was prepared. The hemiazygos vein on the left side was dissected and transected, as it is hiding both the left pulmonary artery and the left atrium. After dissection the ligated ends can be pulled to facilitate exposure of the OP field. The […] and bronchus are encircled. Left pneumonectomy was performed using vascular clamps. Immediately before the implantation single intravenous dose of methylprednisolone (500-1000 mg) and a low dose of heparin (100 IU/kg, see above) was applied. The donor lung was then reimplanted using 4-0 PDS for the bronchial anastomosis and 5-0 Prolene for the pulmonary artery and the left atrial anastomosis. In pigs, there is an additional lobe (caval lobe) of the right lung with 2 veins into the left atrium (1 separate vein for the caval lobe, 1 additional vein arising from the trunk of the main right lower lobe vein). […]
The left donor lung was evaluated for an additional period of 24 hours.
The following parameters have been assessed:
Functional assessment of graft function by oxygenation parameters: Arterial blood gas analyses as well as selective blood gas analysis from the left pulmonary veins were performed every 2 hours for 24 h. The respiratory index was calculated: RI=PaO2/FiO2.
Lung compliance was calculated from the pressure and volume data of the anesthesia ventilator. […]
Functional assessment of graft function by hemodynamic measurements (on-line measurements) and pulmonary vascular resistance (PVR): Hemodynamics, including pulmonary artery pressure (PAP) was measured continuously. Cardiac output (CO) was measured by using a Swan-Ganz catheter. Pulmonary vascular resistance is calculated by the following formula: PVR (dynes·[…]·cm−5)=(PAP−LAP)×80/CO.

[5] = system: sodium ion current in A549 cells (deglycosylated cell surface); test: Patch clamp assay, whole cell mode, on A549 cells deglycosylated with PNGase F; type: cell-based, human; details: 240 nM peptide, Eh -100 mV
[6] = laboratory syringe, 2 to 8° C., T = 0 and T = 7 days
[7] = storage tank of a nebulizer, 25° C., T = 0 and T = 24 hours

C[C@@H]1NC(=O)CNC(=O)[C@H](CCC(=O)O)NC(=O)[C@@H]2CCCN2C(=O)[C@H]([C@@H](C)O)NC(=O)[C@H](CCC(=O)O)NC(=O)[C@H](CCCNC(=N)N)NC(=O)[C@H](CCC(N)=O)NC(=O)CNC(=O)[C@@H](N)CSSC[C@@H](C(=O)O)NC(=O)[C@H](Cc2ccc(O)cc2)NC(=O)[C@H](Cc2c[nH]c3ccccc23)NC(=O)[C@@H]2CCCN2C(=O)[C@H](CCCCN)NC(=O)[C@H](C)NC(=O)[C@H](CCC(=O)O)NC1=O [SEQ ID NO: 1]
Whole cell current, pre-treatment with PNGase F [1]: 19.6 pA (n = 3) | Purity (stability) ([2]; laboratory syringe, 2 to 8° C., T = 0): 96.3% | Amount/Content [2, 6]: 25 mg/mL | Appearance of aqueous solution [2, 6]: Clear solution | Purity (stability) ([2]; laboratory syringe, 2 to 8° C., T = 7 days): 96.2% | Purity (stability) ([2]; storage tank of a nebulizer, 25° C., T = 0): 96.6% | Amount/Content [2, 7]: 25 mg/mL | Appearance of aqueous solution [2, 7]: Clear solution | Purity (stability) ([2]; storage tank of a nebulizer, 25° C., T = 24 hours): 96.5% | Amount of particles with Ø ≤ 5 μm ([3]; nebulizer Type A): 50% | Median particle diameter ([3]; nebulizer Type A): 4.7 μm | Amount of particles with Ø ≤ 5 μm ([3]; nebulizer Type B): 70% | Median particle diameter ([3]; nebulizer Type B): 3.3 μm | Amount of particles with Ø ≤ 5 μm ([3]; nebulizer Type C): 65% | Median particle diameter ([3]; nebulizer Type C): 3.7 μm | development of lung oedema [4]: reduced | initial graft function and gas exchange [4]: improved | rate of ischemia reperfusion injury induced malfunction of the transplanted lung [4]: reduced | Whole cell current, no pre-treatment with PNGase F [5]: 1073.3 ± 15.1 pA
